Assays:
Hepa 1-6 cells [1] = test: NOS2 and IL10 mRNA in cytomix-exposed Hepa 1-6 cells; type: cell-based, mouse; settings: cytomix 24 h
Description: Mouse hepatoma cells (ATCC, CRL-1830) were grown to near confluence according to the manufacturer's instructions and then exposed to cytomix (a) for 24 hours. At the time of cytomix exposure, cells were treated with B12-CORM2 (25 μM) (b) or the other compounds shown in panel (A). […] (B) shown the relative mRNA levels for the pro-inflammatory enzyme NOS2 (black) and the anti-inflammatory cytokine interleukin 10 (IL10) (white), as measured by real time RT-PCR. Control and cytomix-treated cells were harvested, disrupted, and total RNA extracted. Both gene products increased in response to cytomix, but B12-CORM2 reduced NOS2 and enhanced IL10 expression. […] Moreover, administration of the low molecular weight anti-oxidant N-acetyl cysteine (NAC, 5 mM) (d) abrogates the anti-inflammatory effect of the Re-based CORM according to the invention in accordance with the proposed redox mechanism of action. Finally, the NF-kB inhibitor BAY11 (BAY 11-7082, Santa Cruz) (e) fully blocks the cytomix effect on NOS2, but only partially reduces the effect on IL-10, indicating the NF-kB-independent mechanism of action of B12-CORM2 (*, P<0.05 compared with control cells; #, P<0.05 compared with cytomix treatment). […]
Inflammation assessment. The mRNA levels for the pro-inflammatory enzyme NOS2 and the anti-inflammatory cytokine interleukin 10 (IL10) were measured by real time RT-PCR.

H9c2 cells [2] = test: Western blot densitometry in H9c2 cells exposed to DOX; type: cell-based, rat; settings: +DOX (0.5 μg/ml), 3 days of differentiation
Description: (§1) Cell culture and treatments. H9c2 cells (embryonic rat cardiomyocytes; ATCC) were maintained in DMEM (Invitrogen) supplemented with 10% fetal bovine serum (Invitrogen) and 2 mmol/l 1-glutamine. Cells were plated on 35- or 100-mm dishes in DMEM with 2% FCS for differentiation. Doxorubicin (DOX) was added to complete medium and incubated at 37° C. for different intervals at a concentration (0.5 μg/ml) similar to the plasma concentrations encountered in clinical use. Some cells were exposed to B12-CORM2 (25 μM) with or without DOX. Cells collected after 3 days of differentiation.
Differentiation assessment. Western blot analysis and densitometry were performed relative to tubulin for alpha-actinin as a specific marker of cardiomyocyte differentiation and intactness of the contractile apparatus.
Mitochondrial integrity and density assessment. Western blot analysis and densitometry were performed relative to tubulin for citrate synthase.
DOX and/or B12-CORM2 were added complete medium on day 1.

H9c2 cells [3] = test: cell survival by Trypan blue exclusion in H9c2 cells exposed to DOX; type: cell-based, rat; settings: +DOX (0.5 μg/ml)
Description: as §1
Cell survival. Cell survival was measured by Trypan blue exclusion.
DOX and/or B12-CORM2 were added complete medium on day 1. […] Mitochondrial protection was accompanied by improved cell survival of B12-CORM2-treated cells exposed to DOX, as assessed by Trypan blue exclusion (Table 5).

E14 ESC embryoid bodies = test: beating embryoid body out-growths; type: cell-based, mouse; settings: MitoQ given in the initial five days of differentiation
Description: Culture and differentiation of murine E14 cells, murine D3 cells and human MEL1 cells. These cell lines were independently grown at 37° C. in 5% CO2 on gelatin-coated substrates prepared by coating plastic tissue culture flasks with a 0.1% gelatin solution. Cells were maintained in a standard medium (Iscove's Modified Dulbecco's Medium, Invitrogen) plus 15% newborn calf serum, non-essential amino acids, and nucleosides stock. Leukemia inhibitory factor (LIF) (Chemicon) at a final concentration of 1,000 U/ml and 100 μM 2-mercaptoethanol were added to standard medium to prevent differentiation. For the induction of differentiation the hanging drop method such as described in Keller, 1995, Curr. Opin. Cell. Biol., 7(6), 862-9 was used. E14 cells were cultivated without LIF in hanging drops to form embryoid bodies (EBs) ([…] cells per drop) for 2 days, then kept in suspension for 2 days, and finally plated on gelatin-coated, 96 well, single-culture dishes or single well slides. […] Adhered EBs monitored daily under an inverted microscope for spontaneously beating foci from day 3 onward until day 13. In total, 3×96 EBs from E14 cells were monitored. To confirm that the increase in contracting EBs is HO-1/CO-mediated, E14 cells were transduced with Sh-HO1 vector or empty vector, differentiated as above and monitored by fluorescence microscopy. […]

Hepa 1-6 cells [4] = test: MTT reduction assay in Hepa 1-6 cells; type: cell-based, mouse; settings: control and cytomix-exposed cells, 24 h
Description: Mouse hepatoma cells (ATCC, CRL-1830) were grown to near confluence according to the manufacturer's instructions and then exposed to cytomix (a) for 24 hours. At the time of cytomix exposure, cells were treated with B12-CORM2 (25 μM) (b) or the other compounds shown in panel (A). […] (B) shown the relative mRNA levels for the pro-inflammatory enzyme NOS2 (black) and the anti-inflammatory cytokine interleukin 10 (IL10) (white), as measured by real time RT-PCR. Control and cytomix-treated cells were harvested, disrupted, and total RNA extracted. Both gene products increased in response to cytomix, but B12-CORM2 reduced NOS2 and enhanced IL10 expression. […]
Metabolic capacity assessment: The metabolic state of Hepa 1-6 liver cells was measured using the MTT (3-(4,5-dimethylthiazol-2-yl)-2,5-diphenyltetrazolium bromide, a yellow tetrazole) reduction assay. MTT is reduced to the purple formazan by living cells, which is detected colorimetrically (at 570 nm). […]
Cytomix damages and kills liver cells such as Hepa 1-6 cells. The metabolic state of Hepa 1-6 liver cells were measured using the MTT reduction assay. MTT (3-(4,5-dimethylthiazol-2-yl)-2,5-diphenyltetrazolium bromide, a yellow tetrazole) is reduced to the purple formazan by living cells, which is detected colorimetrically. […]

Cc1ccc(S(=O)(=O)/C=C/C#N)cc1 [BAY11]
cytomix effect on NOS2 induction (Hepa 1-6 cells [1]): fully blocks the cytomix effect on NOS2 induction

COc1cccc2c1C(=O)c1c(O)c3c(c(O)c1C2=O)C[C@@](O)(C(=O)CO)C[C@@H]3O[C@H]1C[C@H](N)[C@H](O)[C@H](C)O1 [DOX, Doxorubicin]
Alpha actinin expression levels (% as compared to untreated cells) (H9c2 cells [2]): 57.1% (11)
Citrate synthase expression levels (% as compared to untreated cells) (H9c2 cells [2]): 60% (12.3)
Surviving cells (% as compared to untreated cells) (H9c2 cells [3]): 61% (9.9)

COC1=C(OC)C(=O)C(CCCCCCCCCC[P+](c2ccccc2)(c2ccccc2)c2ccccc2)=C(C)C1=O [MitoQ]
effect on B12-CORM2-induced percentage of beating EB (E14 ESC embryoid bodies): the B12-CORM2 effect was blocked

CC(=O)N[C@@H](CS)C(=O)O [NAC, N-acetyl cysteine]
inflammatory response to cytomix (NOS2, IL10 mRNA) (Hepa 1-6 cells [1]): not protective

hemin
MTT reduction (metabolic capacity) (Hepa 1-6 cells [4]): did not provide any protection against the cytomix-induced damage
